Results published in paper PMC3265452 (PLoS Neglected Tropical Diseases, 2012).
Counter-ions that a name gives are not always drawn.

Each molecule was assayed against AaDOP2 (Aedes aegypti, UniProt H6D5H2) (assay: AaDOP2 antagonist screen of the LOPAC1280 library (HEK-CRELuc-Aadop2 cells, luminescence)). Conditions: not given.
Type: cell-based

Sequence of AaDOP2 (H6D5H2 1-476): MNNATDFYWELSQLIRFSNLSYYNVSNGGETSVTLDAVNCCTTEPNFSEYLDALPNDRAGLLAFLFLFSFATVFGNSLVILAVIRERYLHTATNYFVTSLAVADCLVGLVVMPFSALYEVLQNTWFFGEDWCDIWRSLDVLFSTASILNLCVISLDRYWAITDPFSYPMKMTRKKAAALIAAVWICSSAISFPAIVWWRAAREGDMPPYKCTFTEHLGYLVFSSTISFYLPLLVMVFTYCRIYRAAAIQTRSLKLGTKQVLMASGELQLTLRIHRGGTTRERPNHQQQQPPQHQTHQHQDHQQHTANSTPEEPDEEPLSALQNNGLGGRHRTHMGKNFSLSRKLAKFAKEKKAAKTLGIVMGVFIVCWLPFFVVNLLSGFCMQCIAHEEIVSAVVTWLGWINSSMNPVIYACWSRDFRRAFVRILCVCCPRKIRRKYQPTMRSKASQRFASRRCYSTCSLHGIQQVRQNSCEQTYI

| SMILES | Compound effect (percent receptor signaling in presence of test compound, relative lux units relative to the SCH23390 control) |
| --- | --- |
| COc1ccccc1N1CCNCC1.Cl [Compound 1129, 1-(2-Methoxyphenyl)piperazine hydrochloride] | 64 |
| Nc1ccc(CCN2CCN(c3cccc(C(F)(F)F)c3)CC2)cc1 [Compound 1130, PAPP] | 66 |
| O=C1NCN(c2ccccc2)C12CCN(CC1COc3ccccc3O1)CC2 (stereo not drawn) [Compound 1131, Spiroxatrine] | 90 |
| Br.COc1ccc(-c2ccc(=N)n(CCCC(=O)O)n2)cc1 [Compound 1132, SR-95531] | 101 |
| Cc1ccc(C(=O)Nc2ccc(S(=O)(=O)O)c3cc(S(=O)(=O)O)cc(S(=O)(=O)O)c23)cc1NC(=O)c1cccc(NC(=O)Nc2cccc(C(=O)Nc3cc(C(=O)Nc4ccc(S(=O)(=O)O)c5cc(S(=O)(=O)O)cc(S(=O)(=O)O)c45)ccc3C)c2)c1 [Compound 1135, Suramin hexasodium] | 112 |
| Nc1ncnc2c1ncn2C1CCCO1 (stereo not drawn) [Compound 1136, SQ 22536] | 120 |
| C[C@H](O)C(=O)C1=Nc2c(nc(N)[nH]c2=O)NC1 [Compound 1137, Sepiapterin] | 110 |
| Cl.Cn1ccc2cc3c(cc21)CCN3C(=O)Nc1cccnc1 [Compound 1141, SB 206553 hydrochloride] | 73 |
| N[C@@H](Cc1c[nH]c2ccccc12)C(=O)O [Compound 1143, L-Tryptophan] | 114 |
| COc1ccc(/C=C/C(=O)Nc2ccccc2C(=O)O)cc1OC [Compound 1144, Tranilast] | 73 |
| CCN(CC)CCNC(=O)c1cc(S(C)(=O)=O)ccc1OC [Compound 1145, Tiapride hydrochloride] | 96 |
| NCCS(=O)(=O)O [Compound 1146, Taurine] | 101 |
| CCCCNC(=O)NS(=O)(=O)c1ccc(C)cc1 [Compound 1148, Tolbutamide] | 112 |
| Clc1cnc(Oc2ccc(Oc3ncc(Cl)cc3Cl)cc2)c(Cl)c1 [Compound 1150, TCPOBOP] | 91 |
| CC(C)NP(=O)(NC(C)C)OP(=O)(NC(C)C)NC(C)C [Compound 1151, Tetraisopropyl pyrophosphoramide] | 111 |
| c1ccc(C2CN3CCSC3=N2)cc1 (stereo not drawn) [Compound 1152, Tetramisole hydrochloride] | 118 |
| OC(CCN1CCCCC1)(c1ccccc1)C1CCCCC1 (stereo not drawn) [Compound 1153, Trihexyphenidyl hydrochloride] | 92 |
| Cn1c(=O)c2[nH]cnc2n(C)c1=O [Compound 1154, Theophylline] | 98 |
| NC/C=C/C(=O)O [Compound 1155, (E)-4-amino-2-butenoic acid] | 126 |
| CCCCCCCCCCCCCCSCC(=O)O [Compound 1156, Tetradecylthioacetic acid] | 101 |
| COc1cc2c(cc1OC)-c1c/c(=N\c3c(C)cc(C)cc3C)n(C)c(=O)n1CC2 [Compound 1157, Trequinsin hydrochloride] | 133 |

| SMILES | Compound effect (percent receptor signaling in presence of test compound, relative lux units relative to the SCH23390 control) |
| --- | --- |
| CC(C)(C)c1cc(/C=C(\C#N)C(N)=S)cc(C(C)(C)C)c1O [Compound 1158, Tyrphostin AG 879] | 33 |
| CC[N+](CC)(CC)CC [Compound 1159, Tetraethylammonium chloride] | 108 |
| Cc1ccc(S(=O)(=O)NC(=O)NN2CCCCCC2)cc1 [Compound 1160, Tolazamide] | 107 |
| CN(C)CCCN1c2ccccc2Sc2ccc(C(F)(F)F)cc21 [Compound 1163, Triflupromazine hydrochloride] | 12 |
| CC(CN(C)C)CN1c2ccccc2CCc2ccccc21 (stereo not drawn) [Compound 1164, Trimipramine maleate] | 13 |
| N#C/C(=C\c1ccc(O)c(O)c1)C(=O)NCc1ccccc1 [Compound 1165, Tyrphostin AG 490] | 96 |
| COc1cc2nc(N3CCN(C(=O)OCc4ccccc4)[C@H](C(=O)NC(C)(C)C)C3)nc(N)c2cc1OC [Compound 1167, L-765,314] | 112 |
| Nc1nc(N)c2nc(-c3ccccc3)c(N)nc2n1 [Compound 1168, Triamterene] | 115 |
| COc1cc2ncnc(Nc3cccc(Cl)c3)c2cc1OC [Compound 1169, Tyrphostin AG 1478] | 88 |
| c1ccc2c(c1)CCCC2C1=NCCN1 (stereo not drawn) [Compound 1170, Tetrahydrozoline hydrochloride] | 102 |
| N#C/C(=C\c1ccc(O)c(O)c1)C(=O)Nc1ccccc1 [Compound 1171, Tyrphostin AG 494] | 83 |
| C[C@@H](NC(=O)/C(C#N)=C/c1ccc(O)c(O)c1)c1ccccc1 [Compound 1174, Tyrphostin AG 527] | 81 |
| Cn1cnc2c1c(=O)[nH]c(=O)n2C [Compound 1175, Theobromine] | 110 |
| N#C/C(=C\c1ccc(O)c(O)c1)C(=O)N1CCc2ccccc21 [Compound 1177, Tyrphostin AG 528] | 78 |
| COc1cc2nc(N3CCN(C(=O)C4CCCO4)CC3)nc(N)c2cc1OC (stereo not drawn) [Compound 1178, Terazosin hydrochloride] | 107 |
| N#C/C(=C\c1ccc(O)c(O)c1)C(=O)NCCCNC(=O)/C(C#N)=C/c1ccc(O)c(O)c1 [Compound 1179, Tyrphostin AG 537] | 112 |
| N#C/C(=C\c1ccc(O)c(O)c1)C(=O)NCCCc1ccccc1 [Compound 1180, Tyrphostin AG 555] | 77 |
| N#C/C(=C\c1ccc(O)c(O)c1)C(=O)NCCc1ccccc1 [Compound 1181, Tyrphostin AG 698] | 82 |
| N#C/C(=C\c1c[nH]c2ccccc12)C(=O)c1ccc(O)c(O)c1 [Compound 1182, Tyrphostin AG 808] | 101 |
| CC(C)(C)NCC(O)c1ccccc1Cl (stereo not drawn) [Compound 1187, Tulobuterol hydrochloride] | 104 |
| O=c1n(CCCN2CCN(c3cccc(Cl)c3)CC2)nc2ccccn12 [Compound 1188, Trazodone hydrochloride] | 97 |

Same assay, conditions: 10 µM compound, 300 nM dopamine, 2 hr

| SMILES | % of the SCH23390 effect (percent inhibition of receptor response relative to the SCH23390 control) |
| --- | --- |
| CN1CCN(CC/C=C2/c3ccccc3Sc3ccc(S(=O)(=O)N(C)C)cc32)CC1.Cl [Compound 1147, Thiothixene hydrochloride] | 86% |

Same assay, conditions: 10 µM compound, 300 nM dopamine, 2 hr; hit = compound effect <20

| SMILES | Compound effect (percent receptor signaling in presence of test compound, relative lux units relative to the SCH23390 control) |
| --- | --- |
| CN(C)CCCCSC(=N)N.Cl.Cl [Compound 1134, SKF 91488 dihydrochloride] | 89% |
| COc1cc2c(cc1OC)[C@@H](c1ccccc1)CN(C)CC2.O=C(O)/C=C\C(=O)O [Compound 1138, R(-)-SCH-12679 maleate] | 36% |
| CCN(CC)CCOC(=O)c1cc(Cl)c(N)cc1OC.Cl [Compound 1140, SDZ-205,557 hydrochloride] | 96% |
| CN1CCN(CC/C=C2/c3ccccc3Sc3ccc(S(=O)(=O)N(C)C)cc32)CC1.Cl [Compound 1147, Thiothixene hydrochloride] | 14% |
| CCN(CC)C(=S)SSC(=S)N(CC)CC [Compound 1149, Tetraethylthiuram disulfide] | 89% |
| CC(C)(C)NCC(O)c1cc(O)cc(O)c1.CC(C)(C)NCC(O)c1cc(O)cc(O)c1.O=S(=O)(O)O (stereo not drawn) [Compound 1161, Terbutaline hemisulfate] | 119% |
| C/C(=C\c1ccc(C(=O)O)cc1)c1ccc2c(c1)C(C)(C)CCC2(C)C [Compound 1166, TTNPB] | 98% |
| Cc1ccc(S(=O)(=O)N[C@@H](Cc2ccccc2)C(=O)CCl)cc1 [Compound 1172, N-p-Tosyl-L-phenylalanine chloromethyl ketone] | 83% |
| CC(O)C(O)[C@H]1CNc2nc(N)[nH]c(=O)c2N1.Cl.Cl (stereo partly drawn) [Compound 1173, (6R)-5,6,7,8-Tetrahydro-L-biopterin hydrochloride] | 109% |

Same assay, conditions: read-out: % of the SCH23390 effect (percent inhibition of receptor response relative to the SCH23390 control)

| SMILES | inhibition at 10 µM |
| --- | --- |
| CN(C)CCCN1c2ccccc2Sc2ccc(C(F)(F)F)cc21 [Compound 1163, Triflupromazine hydrochloride] | 88% |
| CC(CN(C)C)CN1c2ccccc2CCc2ccccc21 (stereo not drawn) [Compound 1164, Trimipramine maleate] | 87% |
